Laboratory results reported in patent US20250325531A1, “TREATMENT OF SYSTOLIC DYSFUNCTION” (MyoKardia, Inc., priority 2024, published 2025).

Legend:
[1] = test system: patients with stable HFrEF; experiment: TTE pharmacodynamics in SAD cohorts, patients with stable HFrEF; assay type: in vivo, human; conditions: Pooled SAD Cohorts 1 and 2
Experimental: PD assessment was done by transthoracic echocardiography as described in Example 1 above. TTE evaluations of LVSV (derived from LVOT-VTI), LVEF, LVFS, SET, and other parameters were PD assessments at predetermined time points. The patients were on bed rest for 10 minutes before the TTEs were obtained. In Part 2 (MAD), TTEs were usually obtained before the morning dose and/or at 7 hours postdose (i.e., close to the anticipated peak effect based on the PK profile from the healthy volunteer studies).
For both Cohorts 1 and 2, the pharmacodynamic effects of Compound I on echocardiographic markers of cardiac structure and function were analyzed by Compound I plasma concentration groups: <2000 ng/ml (low concentration group) and ≥2000 ng/ml (high concentration group) (Table 12).

[2] = test system: healthy volunteers; experiment: Safety and tolerability in food effect study, healthy volunteers; assay type: in vivo, human; conditions: 200 mg
Experimental: ECG was performed as described in Example 1. The following intervals were measured: RR, PR, QRS, and QT. Heart rate (HR) was calculated as […] (with RR expressed in msec) and rounded to the nearest integer. Each individual ECG QT value was corrected for HR. The measured QT data was corrected for HR using the Fridericia method (QTcF) as per the following formulae/method (with QT, RR and QTc expressed in ms): […]
The Investigator or designee monitored the continuous ECG telemetry data and correlated the finding(s) with any other clinical findings, study participant's medical history, study participant's clinical status and laboratory data to determine the clinical importance of the finding.
Serum troponin-I concentrations were determined as described in Example 1. Abnormal and/or rising troponin values (as per Investigator's judgment and taking into account potential Baseline troponin elevation) led to the subject being clinically evaluated for possible myocardial ischemia. […] The entire clinical context would be evaluated (e.g., signs, symptoms, new ECG changes, new troponin, and CK-MB abnormalities) and correlated with any other relevant clinical findings, the subject's medical history, and laboratory data to determine the clinical significance of the findings.

[3] = plasma concentration group <2000 ng/mL (n = 7)
[4] = plasma concentration group ≥2000 ng/mL (n = 12)

Cn1cc(S(=O)(=O)[C@@](C)(F)C2CCN(C(=O)Nc3ccon3)CC2)c(C(F)F)n1 [Compound I, (R)-4-(1-((3-(difluoromethyl)-1-methyl-1H-pyrazol-4-yl)sulfonyl)-1-fluoroethyl)-N-(isoxazol-3-yl) piperidine-1-carboxamide]
A wave peak, placebo-corrected mean change from Baseline (LS mean difference) [1, 3]: -3.2 cm/s | E wave peak, placebo-corrected mean change from Baseline (LS mean difference) [1, 3]: -1.1 cm/s | E/A ratio, placebo-corrected mean change from Baseline (LS mean difference) [1, 3]: 0.09 | E/e′ lateral, placebo-corrected mean change from Baseline (LS mean difference) [1, 3]: 0.6 | LVEDD, placebo-corrected mean change from Baseline (LS mean difference) [1, 3]: 0.2 mm | LVEDV, placebo-corrected mean change from Baseline (LS mean difference) [1, 3]: -2.5 mL | LVEF, placebo-corrected mean change from Baseline (LS mean difference) [1, 3]: 4.1% | LVESD, placebo-corrected mean change from Baseline (LS mean difference) [1, 3]: −1.3 mm | LVESV, placebo-corrected mean change from Baseline (LS mean difference) [1, 3]: -4.0 mL | LVFS, placebo-corrected mean change from Baseline (LS mean difference) [1, 3]: 3.1% | LVGLS, placebo-corrected mean change from Baseline (LS mean difference) [1, 3]: −1.1% | LVSV, placebo-corrected mean change from Baseline (LS mean difference) [1, 3]: 1.0 mL | SET, placebo-corrected mean change from Baseline (LS mean difference) [1, 3]: 8 ms | e′ lateral, placebo-corrected mean change from Baseline (LS mean difference) [1, 3]: -1 cm/s | A wave peak, placebo-corrected mean change from Baseline (LS mean difference) [1, 4]: -8.8 cm/s | E wave peak, placebo-corrected mean change from Baseline (LS mean difference) [1, 4]: -1.6 cm/s | E/A ratio, placebo-corrected mean change from Baseline (LS mean difference) [1, 4]: 0.08 | E/e′ lateral, placebo-corrected mean change from Baseline (LS mean difference) [1, 4]: 0.2 | LVEDD, placebo-corrected mean change from Baseline (LS mean difference) [1, 4]: −0.3 mm | LVEDV, placebo-corrected mean change from Baseline (LS mean difference) [1, 4]: -1.9 mL | LVEF, placebo-corrected mean change from Baseline (LS mean difference) [1, 4]: 4.4% | LVESD, placebo-corrected mean change from Baseline (LS mean difference) [1, 4]: −1.8 mm | LVESV, placebo-corrected mean change from Baseline (LS mean difference) [1, 4]: -3.5 mL | LVFS, placebo-corrected mean change from Baseline (LS mean difference) [1, 4]: 2.8% | LVGLS, placebo-corrected mean change from Baseline (LS mean difference) [1, 4]: −2.1% | LVSV, placebo-corrected mean change from Baseline (LS mean difference) [1, 4]: 9.0 mL | SET, placebo-corrected mean change from Baseline (LS mean difference) [1, 4]: 36 ms | e′ lateral, placebo-corrected mean change from Baseline (LS mean difference) [1, 4]: -1 cm/s | abnormal ECG results ([2]; fasted state): 3 (30.0%) n (%) | drug-related headache, subjects ([2]; fasted state): 3 subjects | headache, subjects ([2]; fasted state): 4 subjects | Cardiac disorders, subjects ([2]; fasted state (1 sinus tachycardia and 1 ventricular tachycardia)): 2 subjects | abnormal ECG results ([2]; fed state): 2 (20.0%) n (%) | drug-related headache, subjects ([2]; fed state): 1 subject | headache, subjects ([2]; fed state): 1 subject | Cardiac disorders, subjects ([2]; fed state (palpitations)): 1 subject
